Experimental data taken from patent publication US10624343B2, “Phenyl urea compound, and use thereof” (Sumitomo Chemical Company, Limited, priority 2016, dated 2020).

Test system: cucumber phytophthora blight fungi (Phytophthora capsici)
Experiment: Test for controlling cucumber phytophthora blight fungi (titer plate growth test)
Type: cell-based
Details: 4.5 mg in 100 μL dimethyl sulfoxide, 1 μL portion plus 150 μL PDB medium with zoospores; 27° C., three days; absorbance at 600 nm; Efficacy=100×(X−Y)/X
Protocol: Test example 1: Test for controlling cucumber phytophthora blight fungi (Phytophthora capsici)
Four point five (4.5) milligrams of the present compound was diluted with 100 μL of dimethyl sulfoxide. One (1) μL portion of the diluted liquid was dispensed into a titer plate (96 wells), and thereto was then dispensed 150 μL of a potato dextrose broth medium (PDB medium) containing zoospores of cucumber phytophthora blight fungi (Phytophthora capsici). This plate was cultured at 27° C. for three days, thereby allowing the cucumber phytophthora blight fungi to undergo proliferation, and the absorbance at 600 nm of each well of the titer plate was then measured to determine a degree of growth of the cucumber phytophthora blight fungi. The efficacy was calculated from the determined degree of growth by the below-mentioned “Equation 1”. As a result, the efficacy of the Present compound was 90% or more. Efficacy=100×(X−Y)/X “Equation 1” where X: Degree of fungal growth in non-treated area Y: Degree of fungal growth in treated area
In the test example, a non-treated area means an area in which a test was conducted in the same manner, except that dimethyl sulfoxide was dispensed in place of the present compound diluted with dimethyl sulfoxide.

Row | SMILES | efficacy
1 | CCOC(=O)COc1ncccc1Oc1cc(NC(N)=O)c(F)cc1Cl [Present compound] | ≥ 90%
2 | CCOC(=O)COc1ncccc1Oc1cc(NC(C)=O)c(F)cc1Cl [N-[4-chloro-2-fluoro-5-{2-(ethoxycarbonyl)methoxy-3-pyridyloxy}phenyl]acetamide] | less than 50%
